Consider 19 compounds from patent US20230089368A1, “POLYAROMATIC UREA DERIVATIVES AND THEIR USE IN THE TREATMENT OF MUSCLE DISEASES” (ANAGENESIS BIOTECHNOLOGIES S.A.S., priority 2019, published 2023).

Counter-ions that a name gives are not always drawn.

For experiment [1], the system named is muscle progenitors (hMP) from DMD hiPSC or WT hiPSC. As to the kind of experiment: Myotube assay: myogenic activity (total myotube area per well). Type of experiment: cell-based, human. The settings on record: Homo sapiens, 72 h; myotube assay, compounds incubated 3 days; read-out: MA (normalized Myotube Area, efficacy). The essentials:
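DMD or WT hiPSC-derived muscle progenitors plated on collagen I in K5 medium with 5 μM Y-27632, treated with compound (1.5 nM–30 μM) for 3 days at 37° C. Cells were fixed, stained for alpha-actinin and imaged for total myotube area per well. EC50 and normalized myotube area (MA) taken from duplicate-averaged data.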

In experiment [2] the test system is satellite-like cells (Pax7-positive cells) in hMP. Description: Myotube assay: Pax7-positive (satellite-like) cell quantification. It counts as cell-based, human. Set-up: key to Pax7% (pool of Pax7-positive cells) / Pax7: −: Depletes the pool of cells, while positively affects the myotubes; +: Maintains or increases the pool of cells, with at least 1 of the highest concentration known to be cytotoxic; ++: Maintains or increases the pool of cells, without any toxicity. To be noted: myotube assay, compounds incubated 3 days. The method, boiled down: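 DMD hiPSC-derived muscle progenitors (hMP) proliferated 4 days, then plated on collagen I in K5 medium with 5 μM Y-27632. Compound added at 1.5 nM–30 μM for 3 days at 37° C, then cells fixed and immunostained. Pax7-positive cells counted as percentage of total nuclei, duplicates averaged.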

Regarding `CSc1cc(Oc2ccnc(N(CCN(C)C)C(=O)OC(C)(C)C)c2)ccc1NC(=O)Nc1cc(C(C)(C)C)nn1-c1ccccc1` [(ch), Tert-Butyl (4-(4-(3-(3-(tert-butyl)-1-phenyl-1H-pyrazol-5-yl)ureido)-3-(methylthio)phenoxy)pyridin-2-yl)(2-(dimethylamino)ethyl)carbamate], the Emax in experiment [1] lay in the range of 50 to 75%. In addition, in experiment [2], the “Pax7% (pool of Pax7-positive cells)” value is recorded as “+”.
In the same order, the values of `CSc1cc(Oc2ccnc3[nH]c(=O)cnc23)ccc1NC(=O)Nc1nnc(C(C)(C)C)o1` [(cj), 1-(5-(tert-butyl)-1,3,4-oxadiazol-2-yl)-3-(2-(methylthio)-4-((3-oxo-3,4-dihydropyrido[2,3-b]pyrazin-8-yl)oxy)phenyl)urea] are not below 75% and “+”.
In the same order, the values of `CSc1cc(Oc2ccnc(NCCN(C)C)c2)ccc1NC(=O)Nc1cc(C(C)(C)C)nn1-c1ccccc1` [(ck), 1-(3-(tert-butyl)-1-phenyl-1H-pyrazol-5-yl)-3-(4-((2-((2-(dimethylamino)ethyl)amino)pyridin-4-yl)oxy)-2-(methylthio)phenyl)urea Hydrochloride] are not below 75% and “+”.
In the same order, the values of `CSc1cc(Oc2ccnc3[nH]c(=O)cnc23)ccc1NC(=O)Nc1cc(C(C)(C)C)nn1-c1ccc(C)c(Cl)c1` [(cl), 1-(3-(tert-butyl)-1-(3-chloro-4-methylphenyl)-1H-pyrazol-5-yl)-3-(2-(methylthio)-4-((3-oxo-3,4-dihydropyrido[2,3-b]pyrazin-8-yl)oxy)phenyl)urea] are not below 75% and “+”.
For the compound `CSc1cc(Oc2ccnc3[nH]c(=O)cnc23)ccc1NC(=O)Nc1cc(C(C)(C)C)nn1-c1ccc(F)c(Cl)c1` [(cm), 1-(3-(tert-butyl)-1-(3-chloro-4-fluorophenyl)-1H-pyrazol-5-yl)-3-(2-(methylthio)-4-((3-oxo-3,4-dihydropyrido[2,3-b]pyrazin-8-yl)oxy)phenyl)urea], the Emax in experiment [1] was not below 75%. Further, in experiment [2], the “Pax7% (pool of Pax7-positive cells)” value was “+”.
The corresponding values for `CSc1cc(Oc2ccnc(C(=O)Nc3ccccc3)c2)ccc1NC(=O)Nc1cc(C(C)(C)C)nn1-c1ccccc1` [(co), 4-(4-(3-(3-(tert-butyl)-1-phenyl-1H-pyrazol-5-yl)ureido)-3-(methylthio)phenoxy)-N-phenylpicolinamide] are 25 to 50% and “++”.
In the same order, the values of `CC(C)(C)c1cc(NC(=O)Nc2ccc(Oc3ccnc4[nH]c(=O)cnc34)c(OC(F)(F)F)c2)n(-c2ccccc2)n1` [(cp), 1-(3-(tert-butyl)-1-phenyl-1H-pyrazol-5-yl)-3-(4-((3-oxo-3,4-dihydropyrido[2,3-b]pyrazin-8-yl)oxy)-3-(trifluoromethoxy)phenyl)urea] are 50 to 75% and “+”.
In the same order, the values of `CC(C)(C)c1cc(NC(=O)Nc2cc(Oc3ccnc4[nH]c(=O)cnc34)ccc2F)n(-c2ccccc2)n1` [(cq), 1-(3-(tert-butyl)-1-phenyl-1H-pyrazol-5-yl)-3-(2-fluoro-5-((3-oxo-3,4-dihydropyrido[2,3-b]pyrazin-8-yl)oxy)phenyl)urea] are not below 75% and “++”.
For the compound `CSc1cc(Oc2ccnc3[nH]c(=O)cnc23)ccc1NC(=O)Nc1cc(C(C)(C)C)nn1-c1ccc(OCCCN(C)C)cc1` [(cr), 1-(3-(tert-butyl)-1-(4-(3-(dimethylamino)propoxy)phenyl)-1H-pyrazol-5-yl)-3-(2-(methylthio)-4-((3-oxo-3,4-dihydropyrido[2,3-b]pyrazin-8-yl)oxy)phenyl)urea], the Emax in experiment [1] is not below 75%. The “Pax7% (pool of Pax7-positive cells)” value in experiment [2] is given as “+”.
In the case of `CC(C)(C)c1cc(NC(=O)Nc2ccc(C(=O)c3ccncc3)cc2)n(-c2ccccc2)n1` [(cs), 1-(3-(tert-butyl)-1-phenyl-1H-pyrazol-5-yl)-3-(4-isonicotinoylphenyl)urea], in experiment [1], the Emax was in the range of 25 to 50%. Also, the “Pax7% (pool of Pax7-positive cells)” value in experiment [2] was “+”.
As to `CSc1cc(Oc2ccnc3c2OCC(=O)N3)ccc1NC(=O)Nc1cc(C(C)(C)C)nn1-c1ccccc1` [(ct), 1-(3-(tert-butyl)-1-phenyl-1H-pyrazol-5-yl)-3-(2-(methylthio)-4-((3-oxo-3,4-dihydro-2H-pyrido[3,2-b][1,4]oxazin-8-yl)oxy)phenyl)urea], the Emax in experiment [1] was not below 75%. For the same compound, the “Pax7% (pool of Pax7-positive cells)” value in experiment [2] is listed as “+”.
In the same order, the values of `CC(C)(C)c1cnc(NC(=O)Nc2ccc(Oc3ccnc4c3CCC(=O)N4)c3ccccc23)s1` [(cu), 1-(5-(tert-butyl)thiazol-2-yl)-3-(4-((7-oxo-5,6,7,8-tetrahydro-1,8-naphthyridin-4-yl)oxy)naphthalen-1-yl)urea] are not below 75% and “++”.
In the same order, the values of `CCOC(=O)Nc1cc(Oc2ccc(NC(=O)Nc3cc(C(C)(C)C)nn3-c3ccccc3)c(SC)c2)ccn1` [(cv), Ethyl (4-(4-(3-(3-(tert-butyl)-1-phenyl-1H-pyrazol-5-yl)ureido)-3-(methylthio)phenoxy)pyridin-2-yl)carbamate] are not below 75% and “+”.
The corresponding values for `CC(C)(C)c1cc(NC(=O)Nc2cccc(Oc3ccnc4[nH]c(=O)cnc34)c2F)n(-c2ccccc2)n1` [(cw), 1-(3-(tert-butyl)-1-phenyl-1H-pyrazol-5-yl)-3-(2-fluoro-3-((3-oxo-3,4-dihydropyrido[2,3-b]pyrazin-8-yl)oxy)phenyl)urea] are not below 75% and “++”.
On to `CSc1cc(Oc2ccnc(NC(=O)OCc3ccccc3)c2)ccc1NC(=O)Nc1cc(C(C)(C)C)nn1-c1ccccc1` [(cx), Benzyl (4-(4-(3-(3-(tert-butyl)-1-phenyl-1H-pyrazol-5-yl)ureido)-3-(methylthio)phenoxy)pyridin-2-yl)carbamate], for which, in experiment [1], the Emax was not below 75%. Moreover, in experiment [2], the “Pax7% (pool of Pax7-positive cells)” value is listed as “+”.
In the same order, the values of `CSc1cc(Oc2ccnc3c2OCCN3)ccc1NC(=O)Nc1cc(C(C)(C)C)nn1-c1ccccc1` [(cy), 1-(3-(tert-butyl)-1-phenyl-1H-pyrazol-5-yl)-3-(4-((3,4-dihydro-2H-pyrido[3,2-b][1,4]oxazin-8-yl)oxy)-2-(methylthio)phenyl)urea] are not below 75% and “+”.
The corresponding values for `CSc1cc(Oc2ccnc3c2CCC(=O)N3)ccc1NC(=O)Nc1cc(C(C)(C)C)no1` [(cz), 1-(3-(tert-butyl)isoxazol-5-yl)-3-(2-(methylthio)-4-((7-oxo-5,6,7,8-tetrahydro-1,8-naphthyridin-4-yl)oxy)phenyl)urea] are not below 75% and “+”.
For `O=C(Nc1ccc(Oc2ccnc3[nH]c(=O)cnc23)cc1F)Nc1cc(C2(C(F)(F)F)CC2)nn1-c1ccccc1` [(d), 1-(2-fluoro-4-((3-oxo-3,4-dihydropyrido[2,3-b]pyrazin-8-yl)oxy)phenyl)-3-(1-phenyl-3-(1-(trifluoromethyl)cyclopropyl)-1H-pyrazol-5-yl)urea], the Emax in experiment [1] lay within 50 to 75%. Besides, in experiment [2], the “Pax7% (pool of Pax7-positive cells)” value was “+”.
In the same order, the values of `CCOC(=O)Nc1cc(Oc2ccc(NC(=O)Nc3cc(C(C)(C)C)nn3-c3ccccc3)c3ccccc23)ccn1` [(da), Ethyl (4-((4-(3-(3-(tert-butyl)-1-phenyl-1H-pyrazol-5-yl)ureido)naphthalen-1-yl)oxy)pyridin-2-yl)carbamate] are not below 75% and “+”.
